Here are results for 15 compounds from ChEMBL document CHEMBL1150776, “Naturally occurring pentacyclic triterpenes as inhibitors of glycogen phosphorylase: synthesis, structure-activity relationships, and X-ray crystallographic studies” (J Med Chem, 2008).

Test [1] addresses T1, Glycogen phosphorylase, muscle form (Oryctolagus cuniculus) (UniProt P00489).
T1 sequence (whole entry): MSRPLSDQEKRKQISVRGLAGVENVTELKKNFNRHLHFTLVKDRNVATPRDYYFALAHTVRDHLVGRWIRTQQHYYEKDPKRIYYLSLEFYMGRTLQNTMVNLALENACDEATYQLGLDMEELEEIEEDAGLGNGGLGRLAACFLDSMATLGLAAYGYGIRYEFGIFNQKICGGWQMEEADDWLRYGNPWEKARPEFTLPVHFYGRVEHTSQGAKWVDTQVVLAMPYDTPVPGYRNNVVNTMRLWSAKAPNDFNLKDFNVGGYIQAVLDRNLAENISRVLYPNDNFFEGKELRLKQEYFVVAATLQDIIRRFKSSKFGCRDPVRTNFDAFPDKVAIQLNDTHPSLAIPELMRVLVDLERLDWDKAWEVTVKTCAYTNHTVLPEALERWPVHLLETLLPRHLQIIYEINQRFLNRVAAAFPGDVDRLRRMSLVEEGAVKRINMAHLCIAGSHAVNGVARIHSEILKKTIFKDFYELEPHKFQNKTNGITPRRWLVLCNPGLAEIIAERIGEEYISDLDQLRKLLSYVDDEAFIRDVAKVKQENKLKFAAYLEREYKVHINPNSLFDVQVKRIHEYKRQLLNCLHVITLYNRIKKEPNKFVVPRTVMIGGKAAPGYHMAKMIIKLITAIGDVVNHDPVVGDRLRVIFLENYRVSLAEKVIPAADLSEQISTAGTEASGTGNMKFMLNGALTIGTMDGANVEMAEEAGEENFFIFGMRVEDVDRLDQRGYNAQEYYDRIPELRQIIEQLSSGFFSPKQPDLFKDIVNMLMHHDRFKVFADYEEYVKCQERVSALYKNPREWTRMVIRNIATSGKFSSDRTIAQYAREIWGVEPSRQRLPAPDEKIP
Put plainly: Inhibition of rabbit muscle glycogen phosphorylase A assessed as phosphate release from glucose-1-phosphate at 2000 uM.

In test [2] the target is T1, Glycogen phosphorylase, muscle form (Oryctolagus cuniculus). Put plainly: (§1) Inhibition of rabbit muscle glycogen phosphorylase A assessed as phosphate release from glucose-1-phosphate.
Test [3] has as its target T2, Glycogen phosphorylase, muscle form (Oryctolagus cuniculus, UniProt P00489).
T2 sequence (P00489 whole entry): T1 sequence (whole entry)
The description is as §1.

Activity calls are given as the source filed them. The calls are words filed in the database; no cut-off is given here.

As a reminder, the IC50 is the concentration at which inhibition is half-maximal.

For `C[C@H]1[C@H](C)CC[C@]2(C(=O)O[C@@H]3O[C@H](CO[C@@H]4O[C@H](CO)[C@@H](O[C@@H]5O[C@H](C)[C@H](O)[C@@H](O)[C@H]5O)[C@H](O)[C@H]4O)[C@@H](O)[C@H](O)[C@H]3O)CC[C@]3(C)C(=CC[C@@H]4[C@@]5(C)C[C@@H](O)[C@H](O)[C@@](C)(CO)[C@@H]5CC[C@]43C)[C@H]12`, the result in test [1] was inactive.

On to `C[C@H]1[C@H](C)CC[C@]2(C(=O)O[C@@H]3O[C@H](CO[C@@H]4O[C@H](CO)[C@@H](O[C@@H]5O[C@@H](C)[C@@H](O)[C@H](O)[C@@H]5O)[C@H](O)[C@H]4O)[C@@H](O)[C@H](O)[C@H]3O)CC[C@]3(C)C(=CC[C@@H]4[C@@]5(C)C[C@@H](O)[C@H](O)[C@@](C)(CO)[C@@H]5[C@H](O)C[C@]43C)[C@H]12`, for which the result in test [2] was inactive.

For the compound `CC1(C)CC[C@]2(C(=O)O[C@@H]3O[C@H](CO)[C@@H](O)[C@H](O)[C@H]3O)CC[C@]3(C)C(=CC[C@@H]4[C@@]5(C)CC[C@H](O)C(C)(C)[C@@H]5CC[C@]43C)[C@@H]2C1`, in test [3], the IC50 stood at 293 µM. On to `C[C@H]1[C@H](C)CC[C@]2(C(=O)O)CC[C@]3(C)C(=CC[C@@H]4[C@@]5(C)CC[C@H](O)C(C)(C)[C@@H]5CC[C@]43C)[C@H]12` [URSOLIC ACID], for which the IC50 in test [3] was found to be 9 µM. As to `C[C@H]1[C@H](C)CC[C@]2(C(=O)O[C@@H]3O[C@H](CO)[C@@H](O)[C@H](O)[C@H]3O)CC[C@]3(C)C(=CC[C@@H]4[C@@]5(C)C[C@@H](O)[C@H](O)C(C)(C)[C@@H]5CC[C@]43C)[C@H]12`, the IC50 in test [3] was determined as 106 µM. Regarding `CC1(C)[C@@H](O[C@H]2O[C@H](C(=O)O)[C@@H](O)[C@H](O)[C@H]2O[C@@H]2O[C@H](C(=O)O)[C@@H](O)[C@H](O)[C@H]2O)CC[C@]2(C)[C@H]3C(=O)C=C4[C@@H]5C[C@@](C)(C(=O)O)CC[C@]5(C)CC[C@@]4(C)[C@]3(C)CC[C@@H]12` [GLYCYRRHIZIN], the IC50 in test [3] was found to be 822 µM.

`C=C(C)[C@@H]1CC[C@]2(C(=O)O)CC[C@]3(C)[C@H](CC[C@@H]4[C@@]5(C)CC[C@H](O)[C@@](C)(CO)[C@@H]5CC[C@]43C)[C@@H]12`: the concentration for half-maximal inhibition (IC50) in test [3] was found to be 16 µM. For the compound `C[C@H]1[C@H](C)CC[C@]2(C(=O)O)CC[C@]3(C)C(=CC[C@@H]4[C@@]5(C)C[C@@H](O)[C@H](O)[C@@](C)(CO)[C@@H]5[C@H](O)C[C@]43C)[C@H]12`, in test [2], the result was inactive.

On to `CC1(C)[C@@H](O)CC[C@]2(C)[C@H]3CC=C4[C@@H]5C[C@@](C)(C(=O)O)CC[C@]5(C)CC[C@@]4(C)[C@]3(C)CC[C@@H]12`, for which, in test [3], the half-maximal inhibitory concentration (IC50) stood at 82 µM. On to `CC1(C)[C@@H](O)CC[C@]2(C)[C@H]3C(=O)C=C4[C@@H]5C[C@@](C)(C(=O)O)CC[C@]5(C)CC[C@@]4(C)[C@]3(C)CC[C@@H]12` [ENOXOLONE], for which the IC50 in test [3] came to 66 µM.

Turning to `C[C@H]1[C@H](C)CC[C@]2(C(=O)O[C@@H]3O[C@H](CO)[C@@H](O)[C@H](O)[C@H]3O)CC[C@]3(C)C(=CC[C@@H]4[C@@]5(C)CC[C@H](O)C(C)(C)[C@@H]5CC[C@]43C)[C@H]12`, the half-maximal inhibitory concentration (IC50) in test [3] is 97 µM. As for `C=C(C)[C@@H]1CC[C@]2(C(=O)O)CC[C@]3(C)[C@H](CC[C@@H]4[C@@]5(C)CC[C@H](O)C(C)(C)[C@@H]5CC[C@]43C)[C@@H]12` [BETULINIC ACID], the half-maximal inhibitory concentration (IC50) in test [3] was 43 µM. Still for that read-out and setting: the same measure for `C=C(C)[C@@H]1CC[C@]2(CO)CC[C@]3(C)[C@H](CC[C@@H]4[C@@]5(C)CC[C@H](O)C(C)(C)[C@@H]5CC[C@]43C)[C@@H]12` [BETULIN]: 17 µM. Still for that read-out and setting: the same measure for `C[C@H]1[C@H](C)CC[C@]2(C(=O)O)CC[C@]3(C)C(=CC[C@@H]4[C@@]5(C)CC[C@@H](O)C(C)(C)[C@@H]5CC[C@]43C)[C@H]12`: 19 µM.

Turning to `C[C@H]1[C@H](C)CC[C@]2(C(=O)O)CC[C@]3(C)C(=CC[C@@H]4[C@@]5(C)CCC(=O)C(C)(C)[C@@H]5CC[C@]43C)[C@H]12` [URSONIC ACID], in test [3], the IC50 worked out at 57 µM.
